Results taken from ChEMBL document CHEMBL5724914, “Linking interpersonal differences in gut microbiota composition and drug biotransformation activity” (2024).

What was measured:
[1] = (§1) The drug is tested on WLS-073 corresponding to human gut metagenome with ENA study accession number: PRJEB37062 and ENA sample accession number: ERS12561749 for biotransformation under anaerobic condition. The drug concentrations were measured over 9 timepoints collected between 0 and 24 hours of incubation by liquid-chromatography-coupled mass spectrometry (LC–MS); conditions: 2 µM
[2] = human gut metagenome, 24 h, 2 µM
[3] = as §1, with “Z-014” for “WLS-073”, “rat” for “human”, “ERS12561814” for “ERS12561749”; conditions: 2 µM
[4] = as §1, with “Z-011” for “WLS-073”, “mouse” for “human”, “ERS12561811” for “ERS12561749”; conditions: 2 µM
[5] = human gut metagenome, 24 h, 2 µM; remark: listed apart in the source
[6] = as §1, with “Z-020” for “WLS-073”, “rabbit” for “human”, “ERS12561819” for “ERS12561749”; conditions: 2 µM
[7] = human gut metagenome, 24 h, 2 µM; remark: listed apart in the source
[8] = as §1, with “WLS-170” for “WLS-073”, “ERS12561762” for “ERS12561749”; conditions: 2 µM
[9] = as §1, with “WLS-090” for “WLS-073”, “ERS12561753” for “ERS12561749”; conditions: 2 µM
Note: call rule not given here.

SMILES | Bacterial Biotransformation [1] | Bacterial Biotransformation [2] | Bacterial Biotransformation [3] | Bacterial Biotransformation [4] | Bacterial Biotransformation [5] | Bacterial Biotransformation [6] | Bacterial Biotransformation [7] | Bacterial Biotransformation [8] | Bacterial Biotransformation [9]
CCOC(=O)[C@H](CCc1ccccc1)N[C@@H](C)C(=O)N1[C@H](C(=O)O)C[C@@H]2CCC[C@@H]21 | Compound metabolized | Compound metabolized | Compound NOT metabolized | Compound NOT metabolized | Compound metabolized | Compound metabolized | Compound metabolized | Compound metabolized | Compound metabolized
CCN(CC)CCNC(C(=O)OCCC(C)C)c1ccccc1.Cl.Cl (centres undefined) | Compound metabolized | Compound metabolized | Compound NOT metabolized | Compound NOT metabolized | Compound metabolized | Compound metabolized | Compound metabolized | Compound metabolized | Compound metabolized
CCCC(=O)Nc1ccc(OCC(O)CNC(C)C)c(C(C)=O)c1 (centres undefined) [ACEBUTOLOL] | Compound NOT metabolized | Compound metabolized | Compound NOT metabolized | Compound NOT metabolized | Compound metabolized | Compound NOT metabolized | Compound NOT metabolized | Compound metabolized | Compound metabolized
C=CCc1ccccc1OCC(O)CNC(C)C (centres undefined) [ALPRENOLOL] | Compound NOT metabolized | Compound metabolized | Compound NOT metabolized | Compound NOT metabolized | Compound NOT metabolized | Compound NOT metabolized | Compound NOT metabolized | Compound metabolized | Compound metabolized
CCC1(c2ccc(N)cc2)CCC(=O)NC1=O (centres undefined) [AMINOGLUTETHIMIDE] | Compound NOT metabolized | Compound NOT metabolized | Compound NOT metabolized |  | Compound NOT metabolized | Compound NOT metabolized | Compound NOT metabolized | Compound NOT metabolized | Compound NOT metabolized
CN1CCc2cccc3c2[C@H]1Cc1ccc(O)c(O)c1-3 [APOMORPHINE] | Compound NOT metabolized | Compound NOT metabolized |  |  | Compound NOT metabolized |  |  | Compound NOT metabolized | Compound NOT metabolized
C[C@@H]1CC[C@H]2[C@@H](C)C(=O)O[C@@H]3O[C@@]4(C)CC[C@@H]1[C@]32OO4 [ARTEMISININ] | Compound metabolized | Compound metabolized | Compound metabolized |  | Compound metabolized | Compound metabolized | Compound metabolized | Compound metabolized | Compound metabolized
CC(C)c1c(C(=O)Nc2ccccc2)c(-c2ccccc2)c(-c2ccc(F)cc2)n1CC[C@@H](O)C[C@@H](O)CC(=O)O [ATORVASTATIN] | Compound NOT metabolized | Compound metabolized | Compound NOT metabolized | Compound NOT metabolized | Compound NOT metabolized | Compound NOT metabolized | Compound metabolized | Compound metabolized | Compound metabolized
CC(=O)O[C@]1(C(C)=O)CC[C@H]2[C@@H]3C=C(Cl)C4=CC(=O)[C@@H]5C[C@@H]5[C@]4(C)[C@H]3CC[C@@]21C [CYPROTERONE ACETATE] | Compound metabolized | Compound metabolized |  | Compound metabolized | Compound metabolized |  | Compound metabolized | Compound metabolized | Compound metabolized
C#C[C@]1(O)CC[C@H]2[C@@H]3CCC4=Cc5oncc5C[C@]4(C)[C@H]3CC[C@@]21C [DANAZOL] | Compound metabolized | Compound metabolized | Compound NOT metabolized |  |  | Compound NOT metabolized |  |  | Compound metabolized
CN1C[C@H](C(=O)N[C@]2(C)O[C@@]3(O)[C@@H]4CCCN4C(=O)[C@H](Cc4ccccc4)N3C2=O)C=C2c3cccc4[nH]cc(c34)C[C@H]21.CN1C[C@H](C(=O)N[C@]2(C)O[C@@]3(O)[C@@H]4CCCN4C(=O)[C@H](Cc4ccccc4)N3C2=O)C=C2c3cccc4[nH]cc(c34)C[C@H]21.O=C(O)C(O)C(O)C(=O)O [ERGOTAMINE TARTRATE] | Compound NOT metabolized |  |  |  | Compound NOT metabolized |  | Compound metabolized | Compound metabolized | Compound metabolized
COC(=O)C1=C(C)NC(C)=C(C(=O)OC(C)C)C1c1cccc2nonc12 (centres undefined) [ISRADIPINE] | Compound NOT metabolized | Compound metabolized |  |  | Compound metabolized |  | Compound metabolized | Compound metabolized | Compound metabolized
COc1c2occc2cc2ccc(=O)oc12 [METHOXSALEN] |  | Compound metabolized | Compound NOT metabolized | Compound NOT metabolized | Compound metabolized | Compound metabolized | Compound metabolized | Compound metabolized | Compound metabolized
CN(C(=O)CN(CCO)CC(=O)N(C)C(C)(C)Cc1ccccc1)C(C)(C)Cc1ccccc1 [OXETHAZAINE] | Compound metabolized | Compound metabolized |  |  | Compound metabolized |  | Compound metabolized | Compound metabolized | Compound metabolized
Nc1ccc(/N=N/c2ccccc2)c(N)n1 [PHENAZOPYRIDINE] | Compound metabolized | Compound metabolized | Compound metabolized | Compound metabolized | Compound metabolized |  | Compound metabolized | Compound metabolized | Compound metabolized
Cc1nc2n(c(=O)c1CCN1CCC(c3noc4cc(F)ccc34)CC1)CCCC2 [RISPERIDONE] |  | Compound metabolized | Compound metabolized | Compound metabolized | Compound metabolized | Compound metabolized |  | Compound metabolized | Compound metabolized
CN(C)CCc1c[nH]c2ccc(Cn3cncn3)cc12.O=C(O)c1ccccc1 [RIZATRIPTAN BENZOATE] | Compound NOT metabolized | Compound NOT metabolized | Compound NOT metabolized | Compound NOT metabolized | Compound NOT metabolized | Compound NOT metabolized | Compound NOT metabolized |  | Compound NOT metabolized
COc1ccc2[nH]c([S+]([O-])Cc3ncc(C)c(OC)c3C)nc2n1 (centres undefined) [TENATOPRAZOLE] | Compound metabolized | Compound metabolized | Compound metabolized | Compound metabolized | Compound metabolized | Compound NOT metabolized | Compound NOT metabolized | Compound NOT metabolized | 
CN1CCN(CC/C=C2/c3ccccc3Sc3ccc(S(=O)(=O)N(C)C)cc32)CC1 [THIOTHIXENE] | Compound metabolized | Compound metabolized |  |  | Compound metabolized |  | Compound metabolized | Compound metabolized | Compound metabolized
Cc1ccc(/C(=C\CN2CCCC2)c2ccccn2)cc1 [TRIPROLIDINE] | Compound NOT metabolized | Compound NOT metabolized | Compound NOT metabolized | Compound NOT metabolized | Compound NOT metabolized |  | Compound NOT metabolized | Compound metabolized | Compound NOT metabolized
CS(=O)(=O)O.O.O.O.O=C1Cc2cc(CCN3CCN(c4nsc5ccccc45)CC3)c(Cl)cc2N1 [ZIPRASIDONE MESYLATE] | Compound metabolized | Compound metabolized |  |  | Compound NOT metabolized |  | Compound metabolized | Compound metabolized | Compound metabolized
